Tests used:
Format in all cases: functional
Escherichia coli [1] = assay: Antimicrobial activity against CTX-M-14, TEM-1-like beta-lactamase producing Escherichia coli isolate CUMC180 by disk diffusion method in presence of beta-lactamase inhibitor clavulanic acid
Escherichia coli [2] = assay: Antimicrobial activity against CMY-2 beta-lactamase producing Escherichia coli isolate CUMC190 by disk diffusion method
Escherichia coli [3] = assay: Antimicrobial activity against CMY-2 beta-lactamase producing Escherichia coli isolate CUMC181 by disk diffusion method in presence of beta-lactamase inhibitor clavulanic acid
Escherichia coli [4] = assay: Antimicrobial activity against CMY-2 beta-lactamase producing Escherichia coli isolate CUMC243 by disk diffusion method in presence of beta-lactamase inhibitor clavulanic acid
Escherichia coli [5] = assay: Antimicrobial activity against CTX-M-14, TEM-1 beta-lactamase producing Escherichia coli isolate CUMC174 by disk diffusion method
Escherichia coli [6] = assay: Antimicrobial activity against CTX-M-14-like, TEM-1-like beta-lactamase producing Escherichia coli isolate CUMC192 by disk diffusion method in presence of beta-lactamase inhibitor clavulanic acid
Escherichia coli [7] = assay: Antimicrobial activity against CMY-2,CTX-M-14,TEM-2-like beta-lactamase producing Escherichia coli isolate CUMC215 by disk diffusion method
Escherichia coli [8] = assay: Antimicrobial activity against CMY-2,TEM-2-like beta-lactamase producing Escherichia coli isolate CUMC224 by disk diffusion method
Klebsiella pneumoniae [9] = assay: Antimicrobial activity against CMY-2,CTX-M-14,TEM-2-like beta-lactamase producing Klebsiella pneumoniae isolate CUMCK2 by disk diffusion method
Escherichia coli [10] = assay: Antimicrobial activity against CTX-M-14, TEM-1-like beta-lactamase producing Escherichia coli isolate CUMC244 by disk diffusion method
Escherichia coli [11] = assay: Antimicrobial activity against CMY-2 beta-lactamase producing Escherichia coli isolate CUMC201 by disk diffusion method in presence of beta-lactamase inhibitor clavulanic acid
Klebsiella pneumoniae [12] = assay: Antimicrobial activity against SHV-12-like, SHV-1-like beta-lactamase producing Klebsiella pneumoniae isolate CUMCK9 by disk diffusion method
Escherichia coli [13] = assay: Antimicrobial activity against CTX-M-14-like, TEM-1-like beta-lactamase producing Escherichia coli isolate CUMC203 by disk diffusion method in presence of beta-lactamase inhibitor clavulanic acid
Escherichia coli [14] = assay: Antimicrobial activity against CTX-M-14-like, TEM-1-like beta-lactamase producing Escherichia coli isolate CUMC204 by disk diffusion method in presence of beta-lactamase inhibitor clavulanic acid
Escherichia coli [15] = assay: Antimicrobial activity against CTX-M-14, TEM-1-like beta-lactamase producing Escherichia coli isolate CUMC176 by disk diffusion method in presence of beta-lactamase inhibitor clavulanic acid
Escherichia coli [16] = assay: Antimicrobial activity against CTX-M-14-like, TEM-1-like beta-lactamase producing Escherichia coli isolate CUMC192 by disk diffusion method
Escherichia coli [17] = assay: Antimicrobial activity against CMY-2 beta-lactamase producing Escherichia coli isolate CUMC225 by disk diffusion method
Escherichia coli [18] = assay: Antimicrobial activity against CMY-2 beta-lactamase producing Escherichia coli isolate CUMC201 by disk diffusion method
Escherichia coli [19] = assay: Antimicrobial activity against CTX-M-14, TEM-1-like beta-lactamase producing Escherichia coli isolate CUMC241 by disk diffusion method in presence of beta-lactamase inhibitor clavulanic acid
Escherichia coli [20] = assay: Antimicrobial activity against CTX-M-15,OXA-30 beta-lactamase producing Escherichia coli isolate CUMC245 by disk diffusion method in presence of beta-lactamase inhibitor clavulanic acid
Escherichia coli [21] = assay: Antimicrobial activity against CMY-2 beta-lactamase producing Escherichia coli isolate CUMC243 by disk diffusion method
Escherichia coli [22] = assay: Antimicrobial activity against CMY-2 beta-lactamase producing Escherichia coli isolate CUMC181 by disk diffusion method
Escherichia coli [23] = assay: Antimicrobial activity against CTX-M-14, TEM-1-like beta-lactamase producing Escherichia coli isolate CUMC180 by disk diffusion method
Escherichia coli [24] = assay: Antimicrobial activity against CTX-M-14-like, TEM-1-like beta-lactamase producing Escherichia coli isolate CUMC233 by disk diffusion method
Escherichia coli [25] = assay: Antimicrobial activity against CTX-M-15,OXA-30 beta-lactamase producing Escherichia coli isolate CUMC245 by disk diffusion method
Escherichia coli [26] = assay: Antimicrobial activity against CMY-2 beta-lactamase producing Escherichia coli isolate CUMC225 by disk diffusion method in presence of beta-lactamase inhibitor clavulanic acid
Escherichia coli [27] = assay: Antimicrobial activity against CTX-M-14-like, TEM-1-like beta-lactamase producing Escherichia coli isolate CUMC204 by disk diffusion method
Escherichia coli [28] = assay: Antimicrobial activity against CTX-M-14, TEM-1-like beta-lactamase producing Escherichia coli isolate CUMC248 by disk diffusion method
Escherichia coli [29] = assay: Antimicrobial activity against CTX-M-14-like, TEM-1-like beta-lactamase producing Escherichia coli isolate CUMC233 by disk diffusion method in presence of beta-lactamase inhibitor clavulanic acid
Escherichia coli [30] = assay: Antimicrobial activity against CTX-M-14, TEM-1-like beta-lactamase producing Escherichia coli isolate CUMC248 by disk diffusion method in presence of beta-lactamase inhibitor clavulanic acid
Klebsiella pneumoniae [31] = assay: Antimicrobial activity against SHV-12-like, SHV-1-like beta-lactamase producing Klebsiella pneumoniae isolate CUMCK9 by disk diffusion method in presence of beta-lactamase inhibitor clavulanic acid
Escherichia coli [32] = assay: Antimicrobial activity against CMY-2,TEM-2-like beta-lactamase producing Escherichia coli isolate CUMC224 by disk diffusion method in presence of beta-lactamase inhibitor clavulanic acid
Escherichia coli [33] = assay: Antimicrobial activity against CTX-M-14, TEM-1 beta-lactamase producing Escherichia coli isolate CUMC174 by disk diffusion method in presence of beta-lactamase inhibitor clavulanic acid
Escherichia coli [34] = assay: Antimicrobial activity against CMY-2 beta-lactamase producing Escherichia coli isolate CUMC190 by disk diffusion method in presence of beta-lactamase inhibitor clavulanic acid
Escherichia coli [35] = assay: Antimicrobial activity against CMY-2 beta-lactamase producing Escherichia coli isolate CUMC223 by disk diffusion method
Escherichia coli [36] = assay: Antimicrobial activity against CTX-M-14, TEM-1-like beta-lactamase producing Escherichia coli isolate CUMC244 by disk diffusion method in presence of beta-lactamase inhibitor clavulanic acid
Escherichia coli [37] = assay: Antimicrobial activity against CTX-M-14-like, TEM-1-like beta-lactamase producing Escherichia coli isolate CUMC203 by disk diffusion method
Klebsiella pneumoniae [38] = assay: Antimicrobial activity against CMY-2,CTX-M-14,TEM-2-like beta-lactamase producing Klebsiella pneumoniae isolate CUMCK2 by disk diffusion method in presence of beta-lactamase inhibitor clavulanic acid
Escherichia coli [39] = assay: Antimicrobial activity against CTX-M-14, TEM-1-like beta-lactamase producing Escherichia coli isolate CUMC241 by disk diffusion method
Escherichia coli [40] = assay: Antimicrobial activity against CMY-2 beta-lactamase producing Escherichia coli isolate CUMC223 by disk diffusion method in presence of beta-lactamase inhibitor clavulanic acid
Escherichia coli [41] = assay: Antimicrobial activity against CMY-2,CTX-M-14,TEM-2-like beta-lactamase producing Escherichia coli isolate CUMC215 by disk diffusion method in presence of beta-lactamase inhibitor clavulanic acid
Escherichia coli [42] = assay: Antimicrobial activity against CTX-M-14, TEM-1-like beta-lactamase producing Escherichia coli isolate CUMC176 by disk diffusion method
Escherichia coli [43] = assay: Antimicrobial activity against CMY-2 beta-lactamase producing Escherichia coli isolate CUMC214 by disk diffusion method in presence of beta-lactamase inhibitor clavulanic acid
Escherichia coli [44] = assay: Antimicrobial activity against CMY-2 beta-lactamase producing Escherichia coli isolate CUMC214 by disk diffusion method

**Q.** How did the “inhibition zone (IZ)” value (Escherichia coli [1]) turn out when `CO/N=C(\C(=O)N[C@@H]1C(=O)N2C(C(=O)O)=C(COC(C)=O)CS[C@H]12)c1csc(N)n1` [CEFOTAXIME] was run?
**A.** Its value is 30 mm.

**Q.** What about the “inhibition zone (IZ)” value (Escherichia coli [2]) of the same compound?
**A.** Its value is 6 mm.

**Q.** What about the “inhibition zone (IZ)” value (Escherichia coli [3]) of the same compound?
**A.** The value was 13 mm.

**Q.** What about the “inhibition zone (IZ)” value (Escherichia coli [4]) of the same compound?
**A.** The value was 12 mm.

**Q.** What about the “inhibition zone (IZ)” value (Escherichia coli [5]) of the same compound?
**A.** Its value is 16 mm.

**Q.** And the “inhibition zone (IZ)” value (Escherichia coli [6])?
**A.** Its value is 30 mm.

**Q.** What about the “inhibition zone (IZ)” value (Escherichia coli [7]) of the same compound?
**A.** Its value is 7 mm.

**Q.** And the “inhibition zone (IZ)” value (Escherichia coli [8])?
**A.** Its value is 15 mm.

**Q.** And the “inhibition zone (IZ)” value (Klebsiella pneumoniae [9])?
**A.** The value was 11 mm.

**Q.** And the “inhibition zone (IZ)” value (Escherichia coli [10])?
**A.** The value was 14 mm.

**Q.** What about the “inhibition zone (IZ)” value (Escherichia coli [11]) of the same compound?
**A.** Its value is 10 mm.

**Q.** And the “inhibition zone (IZ)” value (Klebsiella pneumoniae [12])?
**A.** The value was 18 mm.

**Q.** What about the “inhibition zone (IZ)” value (Escherichia coli [13]) of the same compound?
**A.** The value was 32 mm.

**Q.** What about the “inhibition zone (IZ)” value (Escherichia coli [14]) of the same compound?
**A.** The value was 30 mm.

**Q.** What about the “inhibition zone (IZ)” value (Escherichia coli [15]) of the same compound?
**A.** Its value is 31 mm.

**Q.** What about the “inhibition zone (IZ)” value (Escherichia coli [16]) of the same compound?
**A.** Its value is 15 mm.

**Q.** And the “inhibition zone (IZ)” value (Escherichia coli [17])?
**A.** Its value is 11 mm.

**Q.** What about the “inhibition zone (IZ)” value (Escherichia coli [18]) of the same compound?
**A.** Its value is 12 mm.

**Q.** What about the “inhibition zone (IZ)” value (Escherichia coli [19]) of the same compound?
**A.** Its value is 30 mm.

**Q.** What about the “inhibition zone (IZ)” value (Escherichia coli [20]) of the same compound?
**A.** The value was 30 mm.

**Q.** And the “inhibition zone (IZ)” value (Escherichia coli [21])?
**A.** The value was 11 mm.

**Q.** What about the “inhibition zone (IZ)” value (Escherichia coli [22]) of the same compound?
**A.** Its value is 13 mm.

**Q.** What about the “inhibition zone (IZ)” value (Escherichia coli [23]) of the same compound?
**A.** Its value is 17 mm.

**Q.** And the “inhibition zone (IZ)” value (Escherichia coli [24])?
**A.** Its value is 18 mm.

**Q.** What about the “inhibition zone (IZ)” value (Escherichia coli [25]) of the same compound?
**A.** The value was 6 mm.

**Q.** And the “inhibition zone (IZ)” value (Escherichia coli [26])?
**A.** Its value is 11 mm.

**Q.** What about the “inhibition zone (IZ)” value (Escherichia coli [27]) of the same compound?
**A.** The value was 15 mm.

**Q.** And the “inhibition zone (IZ)” value (Escherichia coli [28])?
**A.** The value was 12 mm.

**Q.** And the “inhibition zone (IZ)” value (Escherichia coli [29])?
**A.** The value was 32 mm.

**Q.** What about the “inhibition zone (IZ)” value (Escherichia coli [30]) of the same compound?
**A.** The value was 28 mm.

**Q.** What about the “inhibition zone (IZ)” value (Klebsiella pneumoniae [31]) of the same compound?
**A.** Its value is 32 mm.

**Q.** And the “inhibition zone (IZ)” value (Escherichia coli [32])?
**A.** Its value is 12 mm.

**Q.** What about the “inhibition zone (IZ)” value (Escherichia coli [33]) of the same compound?
**A.** The value was 30 mm.

**Q.** What about the “inhibition zone (IZ)” value (Escherichia coli [34]) of the same compound?
**A.** Its value is 11 mm.

**Q.** And the “inhibition zone (IZ)” value (Escherichia coli [35])?
**A.** Its value is 13 mm.

**Q.** And the “inhibition zone (IZ)” value (Escherichia coli [36])?
**A.** The value was 29 mm.

**Q.** What about the “inhibition zone (IZ)” value (Escherichia coli [37]) of the same compound?
**A.** Its value is 17 mm.

**Q.** What about the “inhibition zone (IZ)” value (Klebsiella pneumoniae [38]) of the same compound?
**A.** The value was 16 mm.

**Q.** What about the “inhibition zone (IZ)” value (Escherichia coli [39]) of the same compound?
**A.** Its value is 13 mm.

**Q.** And the “inhibition zone (IZ)” value (Escherichia coli [40])?
**A.** Its value is 13 mm.

**Q.** What about the “inhibition zone (IZ)” value (Escherichia coli [41]) of the same compound?
**A.** Its value is 8 mm.

**Q.** And the “inhibition zone (IZ)” value (Escherichia coli [42])?
**A.** The value was 17 mm.

**Q.** What about the “inhibition zone (IZ)” value (Escherichia coli [43]) of the same compound?
**A.** The value was 12 mm.

**Q.** And the “inhibition zone (IZ)” value (Escherichia coli [44])?
**A.** Its value is 13 mm.
